What follows are compounds tested against T1, HER-2 (Homo sapiens, UniProt P04626) (assay: HER-2 Kinase Assay). Details: value in parentheses.
T1 construct: His6 with thrombin site (N); purchased Proqinase (Freiburg, Germany)
Assay type: biochemical
Experimental: The HER-2 kinase used was purified at Proqinase (Freiburg, Germany) from a construct that consisted of a fusion of GST (Glutathione-S-Transferase), HIS6-Thrombin and the nucleotides encoding amino acids 679 to 1255 of HER-2 (Accession Number M11730).
A mixture of a 10× kinase reaction buffer (600 mM Hepes at pH 7.5, 30 mM Magnesium Chloride, 0.03 mM Sodium Vanadate and 500 μg/mL PEG 20,000), DTT (1.2 mM final from a 10 mM stock), APT (1 μM from a 10 mM stock), biotinylated polyGluTyr (1.5 ng/μL final from stock of 1 μg/μL) prepared by Upstate Biotechnologies, Lake Placid, N.Y.), Manganese Chloride (3 mM final from a 1 M stock), γ-^33P-ATP (10 μCl/μL stock) and water (70 μL/well) was added to each well of a Streptavidin Flashplate (Cat. # SMP103, NEN, Boston, Mass.).
Test compound stock (1 μL) was added to the appropriate wells. Diluted GSTHER2 kinase (6.7 ng/μL diluted into 50 mM Tris-HCl at pH 8.0 and 0.1% bovine serum albumin) (30 μL) was added (total volume of 200 ng/well) to initiate the reactions.
The reaction plates were incubated at 30° C. for 1 hr. The reaction was terminated by aspirating the reaction mixture from the plate wells and washing the wells three times with a 1×PBS stop buffer (300 μL) and 100 mM EDTA. After the final wash, the same stop buffer (200 μL) was again added to the wells. The plates were then sealed and read on the TopCount scintillation counter.
The Her-2 inhibition values were derived according to the procedure described in Example 164 and are shown as percent in Table 4 at a test concentration of 1 μM. For those compounds with an IC50, the IC50 value in μM is shown in parentheses. For compounds with multiple test values, each value represents a separate assay result.

Compound	IC50 [nM]
4-oxo-5-(4-phenoxy-phenyl)-4,5-dihydro-3H-1-thia-3,5,6,8-tetraaza-acenaphthylene-2-carboxylic acid (4-morpholin-4-ylmethyl-3-trifluoromethoxy-phenyl)-amide [Cpd 240]	227

The compounds below were run against T2, EGFR (Homo sapiens, UniProt P00533) (assay: EGFR Kinase Assay). Details: GST-EGFR, ATP 5 μM.
T2 construct: The intracellular portion of EGFR started at nucleotide 2189 (corresponding to amino acid 667) and ended at the termination codon; made in house; host or cells: Sf9 insect cells (baculovirus)
Assay type: biochemical
Description: The EGFR kinase used was a fusion of Glutathione-S-Transferase (GST) and a PCR amplified intracellular portion of EGFR (Accession Number NM_005228). The intracellular portion of EGFR started at nucleotide 2189 (corresponding to amino acid 667) and ended at the termination codon. The portion was PCR amplified with primers that added the lambda attB sequences to each end, recombined into an entry vector, then into a GST destination vector (as described in Gateway Technologies Manual by Invitrogen Corporation, Carlsbad, Calif.).
The destination vector was recombined in the DH10BAC strain of bacteria to produce a bacmid. The bacmid was transfected into Sf 9 cells and the supernatant containing the baculovirus was collected. The GSTEGFR protein was purified using large cultures of Sf 9 cells infected with stock virus. After an appropriate period of time, the cells were collected and lysed. The GSTEGFR was then purified from the lysate on Glutathione-Sepharose columns (as described by Amersham Biosciences, Buckinghamshire, United Kingdom).
The EGFR substrate was prepared by biotinylating polyGluTyr (128 mg) (Sigma, St. Louis, Mo.) in a 1×PBS buffer incubated together with a 12-fold molar excess of Sulfo-NHS-LC-Biotin on ice for at least 2 hrs. The free biotin was separated from the biotinylated polyGluTyr on a gel filtration column.
A mixture of a 10× kinase buffer (500 mM Tris at pH 8.0, 100 mM Magnesium Chloride and 1 mM Sodium Vanadate), DTT (1 mM final from 500 mM stock), ATP (5 μM final from 10 mM stock), biotinylated polyGluTyr (10 μg/μL stock), γ-^33P ATP (10 μCl/μL stock) and water was added to each well (for a total of 90 μL/well) of a Streptavidin Flashplate (Perkin Elmer, Wellesley, Mass.).
Test compound in 100% DMSO (2 μL) was added to the appropriate wells. Diluted GSTEGFR (1:300 dilution in 50 mM Tris at pH 8.0 and 0.1% bovine serum albumin) (10 μL) was added to the wells to initiate the reactions.
The plates were incubated at 30° C. for 1 hr with shaking. The reacted contents were removed and the plates were sequentially washed three times with a 1×PBS stop buffer (300 μL without Magnesium and Calcium) and 100 mM EDTA. After the final wash, the same stop buffer (200 μL) was added to the wells. The plates were then sealed and read on the TopCount scintillation counter.
Test compounds were assayed in triplicate at 16 concentrations at half-log dilutions starting at 200 uM. A maximum and minimum signal for the assay was determined on each plate. The percent inhibition of a test compound was calculated according to the formula: […]
For a series of test concentrations, the IC50 was derived by graphing percent inhibition against the log of the concentrations tested for a given compound. For those compounds without an IC50, the inhibition values in percent are shown at a test concentration of 2 μM. For compounds with multiple values, each value represents a separate assay result.

Compound	IC50 [nM]
4-oxo-5-(4-phenoxy-phenyl)-4,5-dihydro-3H-1-thia-3,5,6,8-tetraaza-acenaphthylene-2-carboxylic acid (4-morpholin-4-ylmethyl-3-trifluoromethoxy-phenyl)-amide [Cpd 240]	31
COc1ccc(NC(=O)c2sc3ncnc4c3c2NC(=O)N4c2ccc(F)c(Cl)c2)cc1OC [Cpd 2, 5-(3-chloro-4-fluoro-phenyl)-4-oxo-4,5-dihydro-3H-1-thia-3,5,6,8-tetraaza-acenaphthylene-2-carboxylic acid (3,4-dimethoxy-phenyl)-amide]	37
O=C(Nc1nccs1)c1sc2ncnc3c2c1NC(=O)N3c1ccc(F)c(Cl)c1 [Cpd 4, 5-(3-chloro-4-fluoro-phenyl)-4-oxo-4,5-dihydro-3H-1-thia-3,5,6,8-tetraaza-acenaphthylene-2-carboxylic acid thiazol-2-ylamide]	72
O=C(Nc1cccnc1)c1sc2ncnc3c2c1NC(=O)N3c1ccc(F)c(Cl)c1 [Cpd 5, 5-(3-chloro-4-fluoro-phenyl)-4-oxo-4,5-dihydro-3H-1-thia-3,5,6,8-tetraaza-acenaphthylene-2-carboxylic acid pyridin-3-ylamide]	69
O=C(Nc1ccc(NCCCN2CCOCC2)nc1)c1sc2ncnc3c2c1NC(=O)N3c1ccc(F)c(Cl)c1 [Cpd 6, 5-(3-chloro-4-fluoro-phenyl)-4-oxo-4,5-dihydro-3H-1-thia-3,5,6,8-tetraaza-acenaphthylene-2-carboxylic acid [6-(3-morpholin-4-yl-propylamino)-pyridin-3-yl]-amide]	83
O=C1Nc2c(-c3ccccc3)sc3ncnc(c23)N1c1ccc(F)c(Cl)c1 [Cpd 8, 5-(3-chloro-4-fluoro-phenyl)-2-phenyl-3H,5H-1-thia-3,5,6,8-tetraaza-acenaphthylen-4-one]	542
O=C(Nc1ccc(CNC[C@H]2CCCO2)cc1)c1sc2ncnc3c2c1NC(=O)N3c1ccc(F)c(Cl)c1 [Cpd 17, 5-(3-chloro-4-fluoro-phenyl)-4-oxo-4,5-dihydro-3H-1-thia-3,5,6,8-tetraaza-acenaphthylene-2-carboxylic acid [4-({[(2R)-tetrahydro-furan-2-ylmethyl]-amino}-methyl)-phenyl]-amide]	44
COc1cc(NC(=O)c2sc3ncnc4c3c2NC(=O)N4c2ccc(F)c(Cl)c2)ccc1O [Cpd 19, 5-(3-chloro-4-fluoro-phenyl)-4-oxo-4,5-dihydro-3H-1-thia-3,5,6,8-tetraaza-acenaphthylene-2-carboxylic acid (4-hydroxy-3-methoxy-phenyl)-amide]	43
COc1cc(NC(=O)c2sc3ncnc4c3c2NC(=O)N4c2ccc(F)c(Cl)c2)ccc1OCCN1CCOCC1 [Cpd 20, 5-(3-chloro-4-fluoro-phenyl)-4-oxo-4,5-dihydro-3H-1-thia-3,5,6,8-tetraaza-acenaphthylene-2-carboxylic acid [3-methoxy-4-(2-morpholin-4-yl-ethoxy)-phenyl]-amide]	30
COc1cc(NC(=O)c2sc3ncnc4c3c2NC(=O)N4c2ccc(F)c(Cl)c2)ccc1OCCCN1CCCCC1 [Cpd 21, 5-(3-chloro-4-fluoro-phenyl)-4-oxo-4,5-dihydro-3H-1-thia-3,5,6,8-tetraaza-acenaphthylene-2-carboxylic acid [3-methoxy-4-(3-piperidin-1-yl-propoxy)-phenyl]-amide]	27
COc1cc(NC(=O)c2sc3ncnc4c3c2NC(=O)N4c2ccc(F)c(Cl)c2)ccc1OCCC1CCNCC1 [Cpd 22, 5-(3-chloro-4-fluoro-phenyl)-4-oxo-4,5-dihydro-3H-1-thia-3,5,6,8-tetraaza-acenaphthylene-2-carboxylic acid [3-methoxy-4-(2-piperidin-4-yl-ethoxy)-phenyl]-amide]	42
NCc1ccc(NC(=O)c2sc3ncnc4c3c2NC(=O)N4c2ccc(F)c(Cl)c2)cn1 [Cpd 23, 5-(3-chloro-4-fluoro-phenyl)-4-oxo-4,5-dihydro-3H-1-thia-3,5,6,8-tetraaza-acenaphthylene-2-carboxylic acid (6-aminomethyl-pyridin-3-yl)-amide]	27
C#Cc1cccc(N2C(=O)Nc3c(C(=O)Nc4ccc(CNC5CCNCC5)cc4)sc4ncnc2c34)c1 [Cpd 24, 5-(3-ethynyl-phenyl)-4-oxo-4,5-dihydro-3H-1-thia-3,5,6,8-tetraaza-acenaphthylene-2-carboxylic acid [4-(piperidin-4-ylaminomethyl)-phenyl]-amide]	126
COc1cc(N2C(=O)Nc3c(C(=O)Nc4ccc(CN5CCCCC5)cc4)sc4ncnc2c34)c(Cl)c(OC)c1OC [Cpd 26, 5-(2-chloro-3,4,5-trimethoxy-phenyl)-4-oxo-4,5-dihydro-3H-1-thia-3,5,6,8-tetraaza-acenaphthylene-2-carboxylic acid (4-piperidin-1-ylmethyl-phenyl)-amide]	9260
COc1cc(NC(=O)c2sc3ncnc4c3c2NC(=O)N4c2cc(OC)c(OC)c(OC)c2)ccc1OCCN1CCOCC1 [Cpd 27, 4-oxo-5-(3,4,5-trimethoxy-phenyl)-4,5-dihydro-3H-1-thia-3,5,6,8-tetraaza-acenaphthylene-2-carboxylic acid [3-methoxy-4-(2-morpholin-4-yl-ethoxy)-phenyl]-amide]	41500
O=C1Nc2c([N+](=O)[O-])sc3ncnc(c23)N1c1ccc(F)c(Cl)c1 [Cpd 156, 5-(3-chloro-4-fluoro-phenyl)-2-nitro-3H,5H-1-thia-3,5,6,8-tetraaza-acenaphthylen-4-one]	1370
Nc1sc2ncnc3c2c1NC(=O)N3c1ccc(F)c(Cl)c1 [Cpd 157, 2-amino-5-(3-chloro-4-fluoro-phenyl)-3H,5H-1-thia-3,5,6,8-tetraaza-acenaphthylen-4-one]	371
COc1ccc(CC(=O)Nc2sc3ncnc4c3c2NC(=O)N4c2ccc(F)c(Cl)c2)cc1OC [Cpd 158, N-[5-(3-chloro-4-fluoro-phenyl)-4-oxo-4,5-dihydro-3H-1-thia-3,5,6,8-tetraaza-acenaphthylen-2-yl]-2-(3,4-dimethoxy-phenyl)-acetamide]	2430
COc1ccc(C(=O)Nc2sc3ncnc4c3c2NC(=O)N4c2ccc(F)c(Cl)c2)cc1OC [Cpd 159, N-[5-(3-chloro-4-fluoro-phenyl)-4-oxo-4,5-dihydro-3H-1-thia-3,5,6,8-tetraaza-acenaphthylen-2-yl]-3,4-dimethoxy-benzamide]	1040

Same assay, conditions: test concentration of 2 μM; compounds without an IC50; read-out: EGFR inhibition in percent

Compound	inhibition at 2 µM [%]
COc1cc(N2C(=O)Nc3c(C(=O)Nc4ccc(CN5CCCCC5)cc4)sc4ncnc2c34)cc(OC)c1OC [Cpd 28, 5-(3,4,5-trimethoxy-phenyl)-4-oxo-4,5-dihydro-3H-1-thia-3,5,6,8-tetraaza-acenaphthylene-2-carboxylic acid (4-piperidin-1-ylmethyl-phenyl)-amide]	15

— patent US7579356B2, “Thia-tetraazaacenaphthylene kinase inhibitors” (Janssen Pharmaceutica NV, priority 2005, dated 2009)
